Results as given in patent US8889887B2, “Pentamethine cyanine fluorescent dyes, preparation methods and uses thereof” (Dalian University of Technology, priority 2011, dated 2014).
“And” between values parts separate entries of the source, which are not always exact repeats. Identical values can stand only once. Counter-ions that a name gives are not always drawn. One block for each compound: values may come before it.

Columns and labels:
Type in all cases: physicochemical
[1] = UV absorption and fluorescence emission spectra in different solvents; conditions: for λabs1 maximum absorption wavelength / λabs2 maximum absorption wavelength / λem1 maximum emission wavelength / λem2 maximum emission wavelength: 1 μM; for Φ1 fluorescence quantum yield / Φ2 fluorescence quantum yield / Φ fluorescence quantum yield (single peak): reference Rhodamine B in ethanol
Method: Firstly, stock solutions of 4 and 7 in DMSO were prepared respectively. Then sample solutions of 1 μM were prepared by diluting the mother liquors with corresponding chromatography grade solvent. UV absorption and fluorescence emission spectra of the sample solutions in different solvents were measured at room temperature, the results were shown in FIGS. 1A and 1B, respectively.

[2] = Viscosity experiments: absorption and emission spectra in glycerol-ethanol mixtures; conditions: glycerol-ethanol mixtures
Method: (§1) Firstly, DMSO solutions of 4 and 7 having a concentration of 1.0×10^−3 M were prepared, respectively. The stock solution of […] was added into 10 mL glycerol-ethanol mixture, and ultrasonicated to remove bubbles. The solution stayed for 1 hour, and then absorption and emission spectra therefore were measured by using UV-visible spectrophotometer and fluorescence spectrophotometer, and fluorescence lifetime of solution with different viscosity was detected as well. UV-visible spectrophotometer, model: Hp8453; fluorescence spectrophotometer model: FP-6500; Fluorescence lifetime equipment: Horiba Jobin Yvon Fluoromax-4-p.
(§2) Glycerol-ethanol mixture was a mixture of glycerol and ethanol, Vglycerol: Vethanol were 1:9, 2:8, 3:7, 4:6, 5:5, 6:4, 7:3, 8:2 and 9:1.

[3] = Fluorescence lifetime in solutions with different viscosity
Method: as §1, §2

- Δλ1 Stokes Shift (λem1 − λabs1) ([1]; DMSO): 51 nm
- Δλ2 Stokes Shift (λem2 − λabs2) ([1]; DMSO): 17 nm
- Δλ3 Stokes Shift (λem2 − λabs1) ([1]; DMSO): 230 nm
- ε1 molar extinction coefficient ([1]; DMSO): 15000 L/cm/mol
- ε2 molar extinction coefficient ([1]; DMSO): 108500 L/cm/mol
- λabs1 maximum absorption wavelength ([1]; DMSO): 400 nm
- λabs2 maximum absorption wavelength ([1]; DMSO): 613 nm
- λem1 maximum emission wavelength ([1]; DMSO): 451 nm
- λem2 maximum emission wavelength ([1]; DMSO): 630 nm
- Φ1 fluorescence quantum yield ([1]; DMSO): 0.0158
- Φ2 fluorescence quantum yield ([1]; DMSO): 0.0224
- Δλ1 Stokes Shift (λem1 − λabs1) ([1]; acetonitrile): 54 nm
- Δλ2 Stokes Shift (λem2 − λabs2) ([1]; acetonitrile): 19 nm
- Δλ3 Stokes Shift (λem2 − λabs1) ([1]; acetonitrile): 229 nm
- ε1 molar extinction coefficient ([1]; acetonitrile): 11200 L/cm/mol
- ε2 molar extinction coefficient ([1]; acetonitrile): 93500 L/cm/mol
- λabs1 maximum absorption wavelength ([1]; acetonitrile): 397 nm
- λabs2 maximum absorption wavelength ([1]; acetonitrile): 607 nm
- λem1 maximum emission wavelength ([1]; acetonitrile): 451 nm
- λem2 maximum emission wavelength ([1]; acetonitrile): 626 nm
- Φ1 fluorescence quantum yield ([1]; acetonitrile): 0.0062
- Φ2 fluorescence quantum yield ([1]; acetonitrile): 0.0071
- Δλ1 Stokes Shift (λem1 − λabs1) ([1]; dichloromethane): 55 nm
- Δλ2 Stokes Shift (λem2 − λabs2) ([1]; dichloromethane): 29 nm
- Δλ3 Stokes Shift (λem2 − λabs1) ([1]; dichloromethane): 255 nm
- ε1 molar extinction coefficient ([1]; dichloromethane): 16000 L/cm/mol
- ε2 molar extinction coefficient ([1]; dichloromethane): 89700 L/cm/mol
- λabs1 maximum absorption wavelength ([1]; dichloromethane): 399 nm
- λabs2 maximum absorption wavelength ([1]; dichloromethane): 625 nm
- λem1 maximum emission wavelength ([1]; dichloromethane): 454 nm
- λem2 maximum emission wavelength ([1]; dichloromethane): 654 nm
- Φ1 fluorescence quantum yield ([1]; dichloromethane): 0.0060
- Φ2 fluorescence quantum yield ([1]; dichloromethane): 0.0231
- Δλ1 Stokes Shift (λem1 − λabs1) ([1]; ethanol): 52 nm
- Δλ2 Stokes Shift (λem2 − λabs2) ([1]; ethanol): 40 nm
- Δλ3 Stokes Shift (λem2 − λabs1), pseudo-Stokes Shift ([1]; ethanol): 254 nm
- ε1 molar extinction coefficient ([1]; ethanol): 13800 L/cm/mol
- ε2 molar extinction coefficient ([1]; ethanol): 97500 L/cm/mol
- λabs1 maximum absorption wavelength ([1]; ethanol): 399 nm
- λabs2 maximum absorption wavelength ([1]; ethanol): 613 nm
- λem1 maximum emission wavelength ([1]; ethanol): 451 nm
- λem2 maximum emission wavelength ([1]; ethanol): 653 nm
- Φ1 fluorescence quantum yield ([1]; ethanol): 0.0050
- Φ2 fluorescence quantum yield ([1]; ethanol): 0.0108
- sensitivity to solvent polarity ([1]; low-viscosity solvents of different polarity): insensitive to solvent polarity
- Δλ1 Stokes Shift (λem1 − λabs1) ([1]; methanol): 51 nm
- Δλ2 Stokes Shift (λem2 − λabs2) ([1]; methanol): 42 nm
- Δλ3 Stokes Shift (λem2 − λabs1) ([1]; methanol): 250 nm
- ε1 molar extinction coefficient ([1]; methanol): 14500 L/cm/mol
- ε2 molar extinction coefficient ([1]; methanol): 99300 L/cm/mol
- λabs1 maximum absorption wavelength ([1]; methanol): 400 nm
- λabs2 maximum absorption wavelength ([1]; methanol): 608 nm
- λem1 maximum emission wavelength ([1]; methanol): 451 nm
- λem2 maximum emission wavelength ([1]; methanol): 650 nm
- Φ1 fluorescence quantum yield ([1]; methanol): 0.0050
- Φ2 fluorescence quantum yield ([1]; methanol): 0.0079
- absorption peak, longer wavelength ([1]; solvent not stated): 610 nm
- absorption peak, shorter wavelength ([1]; solvent not stated): 400 nm
- emission peak, longer wavelength ([1]; solvent not stated): 650 nm
- emission peak, shorter wavelength ([1]; solvent not stated): 456 nm and 460 nm
- Δλ1 Stokes Shift (λem1 − λabs1) ([1]; water): 47 nm
- Δλ2 Stokes Shift (λem2 − λabs2) ([1]; water): 43 nm
- Δλ3 Stokes Shift (λem2 − λabs1) ([1]; water): 230 nm
- ε1 molar extinction coefficient ([1]; water): 16800 L/cm/mol
- ε2 molar extinction coefficient ([1]; water): 62100 L/cm/mol
- λabs1 maximum absorption wavelength ([1]; water): 413 nm
- λabs2 maximum absorption wavelength ([1]; water): 600 nm
- λem1 maximum emission wavelength ([1]; water): 460 nm
- λem2 maximum emission wavelength ([1]; water): 643 nm
- Φ1 fluorescence quantum yield ([1]; water): 0.0023
- Φ2 fluorescence quantum yield ([1]; water): 0.0032
- sensitivity of fluorescence intensity to solvent viscosity [2]: quite sensitive to solvent viscosity
- fluorescence lifetime ([3]; 99% glycerol solution): 1450 ps
- fluorescence lifetime ([3]; pure ethanol): lower than 50 ps
Structure (SMILES): CCN1/C(=C/C=C(C=O)/C=C/C2=[N+](CC)c3ccccc3C2(C)C)C(C)(C)c2ccccc21 [compound 4, 1,5-di(1-N-ethyl-3,3-dimethyl-2,3-H-lindoline)-3-formyl-1,3,5-pentatriene chloride quaternary ammonium salt cyanine dye]

- Δλ Stokes Shift (single peak) ([1]; DMSO): 13 nm
- ε molar extinction coefficient (single peak) ([1]; DMSO): 272000 L/cm/mol
- λabs maximum absorption wavelength (single peak) ([1]; DMSO): 655 nm
- λem maximum emission wavelength (single peak) ([1]; DMSO): 668 nm
- Φ fluorescence quantum yield (single peak) ([1]; DMSO): 0.33
- Δλ Stokes Shift (single peak) ([1]; THF): 9 nm
- ε molar extinction coefficient (single peak) ([1]; THF): 227000 L/cm/mol
- λabs maximum absorption wavelength (single peak) ([1]; THF): 653 nm
- λem maximum emission wavelength (single peak) ([1]; THF): 662 nm
- Φ fluorescence quantum yield (single peak) ([1]; THF): 0.37
- Δλ Stokes Shift (single peak) ([1]; dichloromethane): 6 nm
- ε molar extinction coefficient (single peak) ([1]; dichloromethane): 306000 L/cm/mol
- λabs maximum absorption wavelength (single peak) ([1]; dichloromethane): 661 nm
- λem maximum emission wavelength (single peak) ([1]; dichloromethane): 671 nm
- Φ fluorescence quantum yield (single peak) ([1]; dichloromethane): 0.29
- Δλ Stokes Shift (single peak) ([1]; ethanol): 11 nm
- ε molar extinction coefficient (single peak) ([1]; ethanol): 302000 L/cm/mol
- λabs maximum absorption wavelength (single peak) ([1]; ethanol): 652 nm
- λem maximum emission wavelength (single peak) ([1]; ethanol): 663 nm
- Φ fluorescence quantum yield (single peak) ([1]; ethanol): 0.27
- Δλ Stokes Shift (single peak) ([1]; methanol): 10 nm
- ε molar extinction coefficient (single peak) ([1]; methanol): 259000 L/cm/mol
- λabs maximum absorption wavelength (single peak) ([1]; methanol): 649 nm
- λem maximum emission wavelength (single peak) ([1]; methanol): 659 nm
- Φ fluorescence quantum yield (single peak) ([1]; methanol): 0.22
- Δλ Stokes Shift (single peak) ([1]; water): 8 nm
- ε molar extinction coefficient (single peak) ([1]; water): 227000 L/cm/mol
- λabs maximum absorption wavelength (single peak) ([1]; water): 648 nm
- λem maximum emission wavelength (single peak) ([1]; water): 656 nm
- Φ fluorescence quantum yield (single peak) ([1]; water): 0.13
Structure (SMILES): CCN1/C(=C/C=C/C=C/C2=[N+](CC)c3ccccc3C2(C)C)C(C)(C)c2ccccc21 [ethyl-Cy5, reference compound]
